Molecules are shown by their SMILES.

One may read the IC50 as the point on the concentration scale where inhibition reaches its midpoint.

In series [1] the target is T1, VCB and FAM-conjugated HIF1α-derived peptide interaction (Homo sapiens, UniProt P40337).
T1 construct: human VHL (UniPort entry P40337, residues 1 -213); 6xHis followed by TEV site (N, cleaved yes); made in house; host or cells: E. coli One Shot BL21(DE3)
Briefly: Competitive fluorescence polarization (FP) assay, VCB / FAM-conjugated HIF1α-derived peptide. In kind it is binding. Conditions: 2 h incubation between VCB and compound; read-out: apparent IC50 (FP). The protocol: We next focused on developing a second generation covalent VHL binder with enhanced potency and occupancy.
Figure 2 (A) Structure of VHL-SF2. […] (E) Competition pull-down assay from live cells between VHL-SF2-Biotin and VHL-SF2. HEK293T cells were pretreated with DMSO or varying concentrations of VHL-SF2 for 2 h at 37 °C. The cells were lysed and treated with DMSO or VHL-SF2-Biotin (50 μM) for 2 h at room temperature. A pull-down with streptavidin beads was conducted, after which the protein was resolved on SDS/PAGE. VHL and loading control GAPDH levels were visualized by Western blotting.
Figure S3. (A) Gel-based VHL labelling of VHL-SF1-Biotin, and (B) VHL-SF2-Biotin. VCB protein was pre-treated with DMSO, VHL-SF1-Biotin or VHL-SF2-Biotin for 2 h at room temperature, after which protein was resolved on SDS -PAGE and visualised by Neutravidin […]
Figure S4. Dose-response of VHL-SF1 following a 2 h pre-incubation in the presence of VCB and FAM-conjugated HIF1α-derived peptide, assessed by fluorescence polarization. Data […]
Figure S5. (A) VCB was incubated with DMSO for 24 h and subjected to intact-protein LC-MS (VHL: 24784 Da). […]
Fluorescence polarization assay protocol […]
well plate and the plate was shaken for 1 min, before reading fluorescence polarization on a Perkin Elmer Envision 2101 plate reader (excitation 486 nm, emission 535 nm). […]

The subject of the next series is BRD4-HiBiT HEK293T cells. Conditions: 18 h, 70-0.01 μM.

`Cc1cc([C@H](C(=O)N2C[C@H](S(=O)(=O)F)C[C@H]2C(=O)N[C@@H](CC(=O)OC(C)(C)C)c2ccc(-c3scnc3C)cc2)C(C)C)on1` [VHL-SF2, tert-Butyl (S)-3-((2S,4R)-4-(Fluorosulfonyl)-1-((R)-3-methyl-2-(3-methylisoxazol-5-yl)butanoyl)pyrr-olidine-2-carboxamido)-3-(4-(4-methylthiazol-5-yl)phenyl)propanoate]: the IC50 in series [1] is 35 µM. Moreover, in the series with BRD4-HiBiT HEK293T cells, the “cytotoxicity (CellTiter-Glo)” value is reported as “no evidence of cytotoxicity”.

These data come from publication PMC10982999, “Structure-Guided Design and Optimization of Covalent VHL-Targeted Sulfonyl Fluoride PROTACs” (Journal of Medicinal Chemistry, 2024).
